According to PubChem BioAssay (NCI):
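Each compound was tested at five concentrations against cells in 96-well plates for 48 hours. TGI: concentration producing complete growth inhibition.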

Tests used:
Assay in all cases: NCI-60 cell line screen, 48 h
CAKI-1 renal = test system: CAKI-1 renal
OVCAR-5 ovarian = test system: OVCAR-5 ovarian
RPMI-8226 leukemia = test system: RPMI-8226 leukemia
SNB-19 CNS = test system: SNB-19 CNS
DU-145 prostate = test system: DU-145 prostate
BT-549 breast = test system: BT-549 breast
UACC-62 melanoma = test system: UACC-62 melanoma
COLO 205 colon = test system: COLO 205 colon
SF-539 CNS = test system: SF-539 CNS
MOLT-4 leukemia = test system: MOLT-4 leukemia
HS 578T breast = test system: HS 578T breast
SK-MEL-2 melanoma = test system: SK-MEL-2 melanoma
HCT-116 colon = test system: HCT-116 colon
EKVX NSCLC = test system: EKVX NSCLC
MALME-3M melanoma = test system: MALME-3M melanoma
UACC-257 melanoma = test system: UACC-257 melanoma
IGROV1 ovarian = test system: IGROV1 ovarian
CCRF-CEM leukemia = test system: CCRF-CEM leukemia
PC-3 prostate = test system: PC-3 prostate
HOP-62 NSCLC = test system: HOP-62 NSCLC
MDA-N = test system: MDA-N
M14 melanoma = test system: M14 melanoma
NCI-H23 lung = test system: NCI-H23 lung
SNB-75 CNS = test system: SNB-75 CNS
A549 NSCLC = test system: A549 NSCLC
NCI/ADR-RES ovarian = test system: NCI/ADR-RES ovarian
HCC-2998 colon = test system: HCC-2998 colon
NCI-H226 lung = test system: NCI-H226 lung
UO-31 renal = test system: UO-31 renal
SK-MEL-5 melanoma = test system: SK-MEL-5 melanoma
KM12 colon = test system: KM12 colon
SN12C renal = test system: SN12C renal
SK-OV-3 ovarian = test system: SK-OV-3 ovarian
T-47D breast = test system: T-47D breast
HOP-92 NSCLC = test system: HOP-92 NSCLC
OVCAR-8 ovarian = test system: OVCAR-8 ovarian
OVCAR-4 ovarian = test system: OVCAR-4 ovarian
OVCAR-3 ovarian = test system: OVCAR-3 ovarian
SF-295 CNS = test system: SF-295 CNS
LOX IMVI melanoma = test system: LOX IMVI melanoma
786-0 renal = test system: 786-0 renal
A498 renal = test system: A498 renal
MCF7 breast = test system: MCF7 breast
MDA-MB-435 = test system: MDA-MB-435
K-562 leukemia = test system: K-562 leukemia
HCT-15 colon = test system: HCT-15 colon
NCI-H522 lung = test system: NCI-H522 lung
SR leukemia = test system: SR leukemia
TK-10 renal = test system: TK-10 renal
U251 CNS = test system: U251 CNS
HT29 colon = test system: HT29 colon
NCI-H460 lung = test system: NCI-H460 lung
MDA-MB-231 breast = test system: MDA-MB-231 breast
SK-MEL-28 melanoma = test system: SK-MEL-28 melanoma
SW-620 colon = test system: SW-620 colon
SF-268 CNS = test system: SF-268 CNS
ACHN renal = test system: ACHN renal
RXF 393 renal = test system: RXF 393 renal

In the case of `Nc1ncnc2c1ncc(=O)n2C1CC(O)C(CO)O1` (centres undefined), the TGI (CAKI-1 renal) is reported as over 100 µM, the TGI (OVCAR-5 ovarian) is reported as over 100 µM and the TGI (RPMI-8226 leukemia) is reported as over 100 µM. For the same compound, the TGI (SNB-19 CNS) was over 100 µM, the TGI (DU-145 prostate) was over 100 µM and the TGI (BT-549 breast) was over 100 µM. For the same compound, the TGI (UACC-62 melanoma) was over 100 µM, the TGI (COLO 205 colon) was over 100 µM and the TGI (SF-539 CNS) was over 100 µM. The TGI (MOLT-4 leukemia) was over 100 µM, the TGI (HS 578T breast) was over 100 µM and the TGI (SK-MEL-2 melanoma) was over 100 µM. The TGI (HCT-116 colon) was over 100 µM, the TGI (EKVX NSCLC) was over 100 µM and the TGI (MALME-3M melanoma) was over 100 µM. For the same compound, the TGI (UACC-257 melanoma) was over 100 µM, the TGI (IGROV1 ovarian) was over 100 µM and the TGI (CCRF-CEM leukemia) was over 100 µM. It also gave a TGI (PC-3 prostate) of over 100 µM, a TGI (HOP-62 NSCLC) of over 100 µM and a TGI (MDA-N) of over 100 µM. For the same compound, the TGI (M14 melanoma) was over 100 µM, the TGI (NCI-H23 lung) was over 100 µM and the TGI (SNB-75 CNS) was over 100 µM. The TGI (A549 NSCLC) was over 100 µM, the TGI (NCI/ADR-RES ovarian) was over 100 µM and the TGI (HCC-2998 colon) was over 100 µM. The TGI (NCI-H226 lung) was over 100 µM, the TGI (UO-31 renal) was over 100 µM and the TGI (SK-MEL-5 melanoma) was over 100 µM. The TGI (KM12 colon) was over 100 µM, the TGI (SN12C renal) was over 100 µM and the TGI (SK-OV-3 ovarian) was over 100 µM. It also gave a TGI (T-47D breast) of over 100 µM, a TGI (HOP-92 NSCLC) of over 100 µM and a TGI (OVCAR-8 ovarian) of over 100 µM. The TGI (OVCAR-4 ovarian) was over 100 µM, the TGI (OVCAR-3 ovarian) was over 100 µM and the TGI (SF-295 CNS) was over 100 µM. For the same compound, the TGI (LOX IMVI melanoma) was over 100 µM, the TGI (786-0 renal) was over 100 µM and the TGI (A498 renal) was over 100 µM. It also gave a TGI (MCF7 breast) of over 100 µM, a TGI (MDA-MB-435) of over 100 µM and a TGI (K-562 leukemia) of over 100 µM. For the same compound, the TGI (HCT-15 colon) was over 100 µM, the TGI (NCI-H522 lung) was over 100 µM and the TGI (SR leukemia) was over 100 µM. For the same compound, the TGI (TK-10 renal) was over 100 µM, the TGI (U251 CNS) was over 100 µM and the TGI (HT29 colon) was over 100 µM. It also gave a TGI (NCI-H460 lung) of over 100 µM, a TGI (MDA-MB-231 breast) of over 100 µM and a TGI (SK-MEL-28 melanoma) of over 100 µM. It also gave a TGI (SW-620 colon) of over 100 µM, a TGI (SF-268 CNS) of over 100 µM and a TGI (ACHN renal) of over 100 µM.

Work on `O=C(/C=C/c1ccc(O)c(O)c1)OCCCOC(=O)/C=C/c1ccc(O)c(O)c1` yielded a TGI (CAKI-1 renal) of over 100 µM, a TGI (OVCAR-5 ovarian) of over 100 µM and a TGI (RPMI-8226 leukemia) of over 100 µM. It also gave a TGI (SNB-19 CNS) of over 100 µM, a TGI (DU-145 prostate) of over 100 µM and a TGI (BT-549 breast) of over 100 µM. For the same compound, the TGI (UACC-62 melanoma) was 49.4 µM, the TGI (COLO 205 colon) was over 100 µM and the TGI (SF-539 CNS) was over 100 µM. For the same compound, the TGI (MOLT-4 leukemia) was over 100 µM, the TGI (HS 578T breast) was over 100 µM and the TGI (SK-MEL-2 melanoma) was over 100 µM. The TGI (HCT-116 colon) was over 100 µM, the TGI (EKVX NSCLC) was over 100 µM and the TGI (MALME-3M melanoma) was over 100 µM. For the same compound, the TGI (UACC-257 melanoma) was over 100 µM, the TGI (IGROV1 ovarian) was over 100 µM and the TGI (CCRF-CEM leukemia) was over 100 µM. The TGI (PC-3 prostate) was over 100 µM, the TGI (HOP-62 NSCLC) was 67.9 µM and the TGI (MDA-N) was 80.1 µM. It also gave a TGI (M14 melanoma) of 65.8 µM, a TGI (NCI-H23 lung) of 78 µM and a TGI (SNB-75 CNS) of over 100 µM. The TGI (A549 NSCLC) was over 100 µM, the TGI (NCI/ADR-RES ovarian) was over 100 µM and the TGI (HCC-2998 colon) was over 100 µM. For the same compound, the TGI (UO-31 renal) was over 100 µM, the TGI (SK-MEL-5 melanoma) was 32.9 µM and the TGI (KM12 colon) was over 100 µM. It also gave a TGI (SN12C renal) of over 100 µM, a TGI (SK-OV-3 ovarian) of over 100 µM and a TGI (T-47D breast) of over 100 µM. The TGI (HOP-92 NSCLC) was 84.4 µM, the TGI (OVCAR-8 ovarian) was over 100 µM and the TGI (OVCAR-4 ovarian) was over 100 µM. It also gave a TGI (OVCAR-3 ovarian) of 32.8 µM, a TGI (SF-295 CNS) of 53.6 µM and a TGI (LOX IMVI melanoma) of 69.6 µM. For the same compound, the TGI (786-0 renal) was over 100 µM, the TGI (A498 renal) was over 100 µM and the TGI (MCF7 breast) was over 100 µM. For the same compound, the TGI (MDA-MB-435) was over 100 µM, the TGI (K-562 leukemia) was over 100 µM and the TGI (HCT-15 colon) was over 100 µM. For the same compound, the TGI (NCI-H522 lung) was 40.6 µM, the TGI (SR leukemia) was over 100 µM and the TGI (TK-10 renal) was over 100 µM. For the same compound, the TGI (U251 CNS) was over 100 µM, the TGI (RXF 393 renal) was 79.6 µM and the TGI (HT29 colon) was over 100 µM. The TGI (NCI-H460 lung) was over 100 µM, the TGI (MDA-MB-231 breast) was over 100 µM and the TGI (SK-MEL-28 melanoma) was over 100 µM. The TGI (SW-620 colon) was over 100 µM, the TGI (SF-268 CNS) was over 100 µM and the TGI (ACHN renal) was over 100 µM.
